# Measurements as given in the supplement of paper PMC10883282.
# Where a name gives a salt, the structure may show the parent alone. ± gives the standard deviation of the averaged measurements.
# Legend:
# Experiment in all cases: relative viability vs DMSO control (72 h) (fraction); higher = more viable cells
# [1] = system: A204
# In short: (§1)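 Plates held 72 h at 37 °C and 5% CO2 contained sarcoma cell lines seeded in 384-well format to reach 80–90% confluence, plus 2.5 µl of serially diluted compound added after 24 h. Source plate concentrations ran from 10 mM to 0.0002 mM, with 0.1% DMSO as vehicle and a 5 µM positive control. Percent growth from ATPLite readings, averaged over up to triplicate wells, gave relative viability. Values were rescaled with 1 as full and 0 as none.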
# [2] = system: G401
# In short: as §1
# [3] = system: HS729
# In short: as §1
# [4] = system: KHOS-240S
# In short: as §1
# [5] = system: MES-SA
# In short: as §1
# [6] = system: SK-ES-1
# In short: as §1
# [7] = system: SK-LMS-1
# In short: as §1
# [8] = system: SW1353
# In short: as §1
# [9] = system: SW684
# In short: as §1
# [10] = system: SW872
# In short: as §1
# [11] = system: SW982
# In short: as §1
# [12] = system: SYO-1
# In short: as §1
smiles,measurement,setting,value
C=C1C[C@@H]2CC[C@@]34C[C@H]5O[C@H]6[C@@H](O3)[C@H]3O[C@H](CC[C@@H]3O[C@H]6[C@H]5O4)CC(=O)C[C@@H]3[C@@H](OC)[C@@H](C[C@H](O)CN)O[C@H]3C[C@H]3O[C@@H](CC[C@@H]1O2)C[C@@H](C)C3=C [Eribulin Mesylate],relative viability,[1]; 1.37 pM,1.12 ± 0.048
same,relative viability,[1]; 4.1 pM,1.12 ± 0.015
same,relative viability,[1]; 12.3 pM,1.09 ± 0.032
same,relative viability,[1]; 37 pM,0.68 ± 0.098
same,relative viability,[1]; 0.00011 µM,0.596 ± 0.031
same,relative viability,[1]; 0.00033 µM,0.475 ± 0.018
same,relative viability,[1]; 0.001 µM,0.414 ± 0.039
same,relative viability,[1]; 0.003 µM,0.329 ± 0.038
same,relative viability,[1]; 0.009 µM,0.2412 ± 0.0022
same,relative viability,[1]; 0.027 µM,0.224 ± 0.0057
same,relative viability,[1]; 460 fM,1.11 ± 0.047
same,relative viability,[2]; 1.37 pM,1.08 ± 0.022
same,relative viability,[2]; 4.1 pM,1.06 ± 0.04
same,relative viability,[2]; 12.3 pM,1.06 ± 0.027
same,relative viability,[2]; 37 pM,0.814 ± 0.14
same,relative viability,[2]; 0.00011 µM,0.736 ± 0.081
same,relative viability,[2]; 0.00033 µM,0.604 ± 0.049
same,relative viability,[2]; 0.001 µM,0.513 ± 0.0063
same,relative viability,[2]; 0.003 µM,0.452 ± 0.011
same,relative viability,[2]; 0.009 µM,0.417 ± 0.011
same,relative viability,[2]; 0.027 µM,0.366 ± 0.0054
same,relative viability,[2]; 460 fM,1.05 ± 0.025
same,relative viability,[3]; 1.37 pM,1.04 ± 0.036
same,relative viability,[3]; 4.1 pM,0.987 ± 0.035
same,relative viability,[3]; 12.3 pM,0.965 ± 0.058
same,relative viability,[3]; 37 pM,0.874 ± 0.061
same,relative viability,[3]; 0.00011 µM,0.835 ± 0.035
same,relative viability,[3]; 0.00033 µM,0.756 ± 0.019
same,relative viability,[3]; 0.001 µM,0.6663 ± 0.0064
same,relative viability,[3]; 0.003 µM,0.583 ± 0.015
same,relative viability,[3]; 0.009 µM,0.519 ± 0.018
same,relative viability,[3]; 0.027 µM,0.48 ± 0.0042
same,relative viability,[3]; 460 fM,1.08 ± 0.043
same,relative viability,[4]; 1.37 pM,1.11 ± 0.038
same,relative viability,[4]; 4.1 pM,1.09 ± 0.02
same,relative viability,[4]; 12.3 pM,1.1 ± 0.042
same,relative viability,[4]; 37 pM,0.9987 ± 0.0074
same,relative viability,[4]; 0.00011 µM,0.655 ± 0.018
same,relative viability,[4]; 0.00033 µM,0.504 ± 0.02
same,relative viability,[4]; 0.001 µM,0.365 ± 0.029
same,relative viability,[4]; 0.003 µM,0.245 ± 0.01
same,relative viability,[4]; 0.009 µM,0.179 ± 0.02
same,relative viability,[4]; 0.027 µM,0.15 ± 0.011
same,relative viability,[4]; 460 fM,1.07 ± 0.014
same,relative viability,[5]; 1.37 pM,1.01 ± 0.021
same,relative viability,[5]; 4.1 pM,0.996 ± 0.018
same,relative viability,[5]; 12.3 pM,0.973 ± 0.011
same,relative viability,[5]; 37 pM,0.425 ± 0.018
same,relative viability,[5]; 0.00011 µM,0.472 ± 0.049
same,relative viability,[5]; 0.00033 µM,0.311 ± 0.0072
same,relative viability,[5]; 0.001 µM,0.254 ± 0.017
same,relative viability,[5]; 0.003 µM,0.178 ± 0.0044
same,relative viability,[5]; 0.009 µM,0.122 ± 0.0053
same,relative viability,[5]; 0.027 µM,0.109 ± 0.0048
same,relative viability,[5]; 460 fM,0.996 ± 0.016
same,relative viability,[6]; 1.37 pM,1.05 ± 0.065
same,relative viability,[6]; 4.1 pM,1.06 ± 0.11
same,relative viability,[6]; 12.3 pM,0.861 ± 0.078
same,relative viability,[6]; 37 pM,0.0486 ± 0.0039
same,relative viability,[6]; 0.00011 µM,0.0799 ± 0.011
same,relative viability,[6]; 0.00033 µM,0.0234 ± 0.0067
same,relative viability,[6]; 0.001 µM,0.0171 ± 0.0017
same,relative viability,[6]; 0.003 µM,0.0147 ± 0.00035
same,relative viability,[6]; 0.009 µM,0.0166 ± 0.0027
same,relative viability,[6]; 0.027 µM,0.019 ± 0.0013
same,relative viability,[6]; 460 fM,1.07 ± 0.088
same,relative viability,[7]; 1.37 pM,0.971 ± 0.049
same,relative viability,[7]; 4.1 pM,0.952 ± 0.048
same,relative viability,[7]; 12.3 pM,0.909 ± 0.018
same,relative viability,[7]; 37 pM,0.819 ± 0.02
same,relative viability,[7]; 0.00011 µM,0.708 ± 0.048
same,relative viability,[7]; 0.00033 µM,0.52 ± 0.056
same,relative viability,[7]; 0.001 µM,0.482 ± 0.016
same,relative viability,[7]; 0.003 µM,0.392 ± 0.016
same,relative viability,[7]; 0.009 µM,0.359 ± 0.018
same,relative viability,[7]; 0.027 µM,0.308 ± 0.021
same,relative viability,[7]; 460 fM,0.996 ± 0.049
same,relative viability,[8]; 1.37 pM,1.13 ± 0.027
same,relative viability,[8]; 4.1 pM,1.08 ± 0.022
same,relative viability,[8]; 12.3 pM,1.06 ± 0.016
same,relative viability,[8]; 37 pM,0.975 ± 0.03
same,relative viability,[8]; 0.00011 µM,0.935 ± 0.11
same,relative viability,[8]; 0.00033 µM,0.702 ± 0.031
same,relative viability,[8]; 0.001 µM,0.56 ± 0.02
same,relative viability,[8]; 0.003 µM,0.497 ± 0.018
same,relative viability,[8]; 0.009 µM,0.474 ± 0.026
same,relative viability,[8]; 0.027 µM,0.441 ± 0.022
same,relative viability,[8]; 460 fM,1.16 ± 0.049
same,relative viability,[9]; 1.37 pM,1.16 ± 0.054
same,relative viability,[9]; 4.1 pM,1.13 ± 0.034
same,relative viability,[9]; 12.3 pM,1.11 ± 0.03
same,relative viability,[9]; 37 pM,0.994 ± 0.028
same,relative viability,[9]; 0.00011 µM,1 ± 0.029
same,relative viability,[9]; 0.00033 µM,0.865 ± 0.035
same,relative viability,[9]; 0.001 µM,0.806 ± 0.051
same,relative viability,[9]; 0.003 µM,0.812 ± 0.023
same,relative viability,[9]; 0.009 µM,0.822 ± 0.031
same,relative viability,[9]; 0.027 µM,0.828 ± 0.08
same,relative viability,[9]; 460 fM,1.15 ± 0.029
same,relative viability,[10]; 1.37 pM,1.08 ± 0.049
same,relative viability,[10]; 4.1 pM,1.09 ± 0.045
same,relative viability,[10]; 12.3 pM,1.06 ± 0.027
same,relative viability,[10]; 37 pM,0.946 ± 0.029
same,relative viability,[10]; 0.00011 µM,0.869 ± 0.025
same,relative viability,[10]; 0.00033 µM,0.8125 ± 0.003
same,relative viability,[10]; 0.001 µM,0.686 ± 0.028
same,relative viability,[10]; 0.003 µM,0.567 ± 0.018
same,relative viability,[10]; 0.009 µM,0.4921 ± 0.0027
same,relative viability,[10]; 0.027 µM,0.429 ± 0.045
same,relative viability,[10]; 460 fM,1.1 ± 0.035
same,relative viability,[11]; 1.37 pM,1.061 ± 0.0085
same,relative viability,[11]; 4.1 pM,1.08 ± 0.021
same,relative viability,[11]; 12.3 pM,1.05 ± 0.021
same,relative viability,[11]; 37 pM,1.04 ± 0.016
same,relative viability,[11]; 0.00011 µM,0.801 ± 0.036
same,relative viability,[11]; 0.00033 µM,0.523 ± 0.03
same,relative viability,[11]; 0.001 µM,0.41 ± 0.01
same,relative viability,[11]; 0.003 µM,0.336 ± 0.03
same,relative viability,[11]; 0.009 µM,0.307 ± 0.0047
same,relative viability,[11]; 0.027 µM,0.309 ± 0.029
same,relative viability,[11]; 460 fM,1.02 ± 0.041
same,relative viability,[12]; 1.37 pM,0.915 ± 0.042
same,relative viability,[12]; 4.1 pM,0.709 ± 0.059
same,relative viability,[12]; 12.3 pM,0.513 ± 0.011
same,relative viability,[12]; 37 pM,0.388 ± 0.01
same,relative viability,[12]; 0.00011 µM,0.323 ± 0.021
same,relative viability,[12]; 0.00033 µM,0.319 ± 0.0053
same,relative viability,[12]; 0.001 µM,0.312 ± 0.0037
same,relative viability,[12]; 0.003 µM,0.354 ± 0.015
same,relative viability,[12]; 0.009 µM,0.365 ± 0.034
same,relative viability,[12]; 0.027 µM,0.345 ± 0.0051
same,relative viability,[12]; 460 fM,1.01 ± 0.046
